US10131652B2, “Pyrimidinyloxy benzene derivatives as herbicides” (E. I. DU PONT DE NEMOURS AND COMPANY, priority 2014, dated 2018)

How the values were obtained:
Type in all cases: in vivo
[1] = tested on: wild oat (Avena fatua); test: Test D postemergence plant response; conditions: for Oat, Wild plant response rating: scale 0 to 100 (0 no effect, 100 complete control); for Plant response rating, Oat, Wild: scale 0 to 100, 0 no effect, 100 complete control
From the text: (§1) At the same time, plants selected from these crop and weed species and also kochia (Kochia scoparia), wild oat (Avena fatua), and chickweed (common chickweed, Stellaria media) were planted in pots containing Redi-Earth® planting medium (Scotts Company, 14111 Scottslawn Road, Marysville, Ohio 43041) comprising spaghnum peat moss, vermiculite, wetting agent and starter nutrients and treated with postemergence applications of test chemicals formulated in the same manner. Plants ranged in height from 2 to 18 cm (1- to 4-leaf stage) for postemergence treatments. Treated plants and controls were maintained in a greenhouse for 13 to 15 days, after which time all species were compared to controls and visually evaluated. Plant response ratings, summarized in Table D, are based on a scale of 0 to 100 where 0 is no effect and 100 is complete control. A dash (-) response means no test result.

[2] = tested on: kochia (Kochia scoparia); test: Test D postemergence plant response; conditions: for Kochia plant response rating: scale 0 to 100 (0 no effect, 100 complete control); for Plant response rating, Kochia: scale 0 to 100, 0 no effect, 100 complete control
From the text: as §1

[3] = tested on: chickweed (common chickweed, Stellaria media); test: Test D postemergence plant response; conditions: for Chickweed plant response rating: scale 0 to 100 (0 no effect, 100 complete control); for Plant response rating, Chickweed: scale 0 to 100, 0 no effect, 100 complete control
From the text: as §1

[4] = tested on: galium (catchweed bedstraw, Galium aparine); test: Test B postemergence plant response
In short: (§2)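 Weeds grown in loam soil/sand pots were sprayed postemergence at 2 to 10 cm height, one- to two-leaf stage. After approximately 10 days in greenhouse, injury was rated visually against untreated controls on a 0 (no effect) to 100 (complete control) scale; dash means no test result.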

[5] = tested on: blackgrass (Alopecurus myosuroides); test: Test B postemergence plant response
In short: as §2

[6] = 125 g ai/ha, postemergence, 0 to 100 scale, 0 no effect, 100 complete control
[7] = Postemergence, 500 g ai/ha, 0 to 100 scale (0 no effect, 100 complete control)
[8] = Postemergence, 1000 g ai/ha, 0 to 100 scale (0 no effect, 100 complete control)
[9] = 31 g ai/ha, Postemergence, 0 to 100 scale, 0 no effect, 100 complete control
[10] = Postemergence, 31 g ai/ha, 0 to 100 scale (0 no effect, 100 complete control)

Row | Structure (SMILES) | Oat, Wild plant response rating ([1]; 16 g ai/ha) | Oat, Wild plant response rating ([1]; 31 g ai/ha) | Plant response rating, Oat, Wild ([1]; 62 g ai/ha) | Plant response rating, Oat, Wild ([1]; 125 g ai/ha) | Kochia plant response rating ([2]; 16 g ai/ha) | Kochia plant response rating ([2]; 31 g ai/ha) | Plant response rating, Kochia ([2]; 62 g ai/ha) | Plant response rating, Kochia ([2]; 125 g ai/ha) | Chickweed plant response rating ([3]; 16 g ai/ha) | Chickweed plant response rating ([3]; 31 g ai/ha) | Plant response rating, Chickweed ([3]; 62 g ai/ha) | Plant response rating, Chickweed ([3]; 125 g ai/ha) | Plant response rating, Galium [4, 6] | Plant response rating, Galium [4, 7] | Plant response rating, Blackgrass [5, 6] | Plant response rating, Blackgrass [5, 7] | Plant response rating, Galium [4, 9] | Plant response rating, Blackgrass [5, 9] | further results
1 | Cn1nnc(-c2ccccc2Oc2ncc(Br)cn2)n1 [Compound 50] | 0 | 0 | 0 | 0 | 0 | 0 | 5 | 15 | 0 | 0 | 5 | 5 | 90 | 100 | 40 | 60 |  |  | 
2 | FC(F)(F)c1cc(-c2ccccc2Oc2ncc(Cl)cn2)ncn1 [Compound 54] | 0 | 0 | 5 | 5 | 50 | 55 | 80 | 80 | 5 | 5 | 5 | 5 | 100 | 100 | 70 | 80 |  |  | 
3 | FCc1cc(-c2c(F)cccc2Oc2ncc(Cl)cn2)no1 [Compound 57] | 0 | 0 | 5 | 15 | 75 | 90 | 95 | 100 | 30 | 50 | 55 | 75 |  |  |  |  |  |  | Plant response rating, Galium [4, 8]: 90; Plant response rating, Blackgrass [5, 8]: 90
4 | Cc1cc(-c2ccccc2Oc2ncc(Cl)cn2)no1 [Compound 60] | 5 | 0 | 0 | 5 | 50 | 50 | 55 | 90 | 45 | 50 | 60 | 75 | 100 | 100 | 50 | 100 |  |  | 
5 | Fc1ccc(Oc2ncc(Cl)cn2)c(-c2cc(C(F)F)on2)c1F [Compound 113] | 10 | 15 | 10 | 25 | 90 | 100 | 100 | 100 | 70 | 85 | 90 | 95 | 100 |  | 90 |  | 90 | 60 | 
6 | FC(Cl)c1cc(-c2ccccc2Oc2ncc(Cl)cn2)no1 (centres unmarked) [Compound 116] | 5 | 5 | 10 | 15 | 100 | 100 | 100 | 100 | 5 | 15 | 30 | 90 | 70 |  | 30 |  | 60 | 20 | 
7 | Fc1cccc(Oc2ncc(Br)cn2)c1-c1cc(C(F)F)on1 [Compound 118] | 5 | 10 | 15 | 50 | 95 | 95 | 95 | 100 | 75 | 70 | 90 | 98 | 100 |  | 100 |  | 100 | 60 | 
8 | FC(F)c1cc(-c2c(Cl)cccc2Oc2ncc(Cl)cn2)on1 [Compound 120] | 35 | 40 | 55 | 60 | 98 | 100 | 100 | 100 | 95 | 100 | 100 | 100 | 100 |  | 90 |  | 100 | 70 | 
9 | FC(F)c1cc(-c2c(Cl)cccc2Oc2ncc(Br)cn2)on1 [Compound 121] |  | 45 | 70 | 70 |  | 100 | 100 | 100 | 95 | 100 | 100 | 100 | 100 |  | 80 |  | 100 | 50 | 
10 | Fc1cccc(Oc2ncc(Cl)cn2)c1-c1cc(C2CC2)on1 [Compound 130] |  | 15 | 35 | 60 |  | 95 | 100 | 100 | 80 | 80 | 80 | 95 | 90 |  | 80 |  |  | 50 | 
11 | FC(F)Oc1cccc(Oc2ncc(Cl)cn2)c1-c1cc(C(F)F)on1 [Compound 131] |  | 15 | 20 | 35 |  | 90 | 95 | 100 | 65 | 80 | 98 | 100 | 90 |  | 80 |  |  | 50 | 
12 | FC(F)(Cl)c1cc(-c2ccccc2Oc2ncc(Cl)cn2)no1 [Compound 143] |  | 0 | 5 | 5 |  | 100 | 100 | 100 | 45 | 50 | 60 | 80 | 100 |  | 60 |  |  |  | Plant response rating, Galium [4, 10]: 50; Plant response rating, Blackgrass [5, 10]: 30
13 | Cc1cc(-c2ccccc2Oc2ncc(Cl)cn2)no1 [Compound 153] |  | 0 | 0 | 0 |  | 50 | 40 | 60 | 20 | 20 | 20 | 25 | 90 | 100 | 40 | 90 |  |  | 
